Test results published in PMC10511495, “Dermato-cosmeceutical properties of Pseudobombax ellipticum (Kunth) Dugand: Chemical profiling, in vitro and in silico studies” (Saudi Pharmaceutical Journal : SPJ, 2023).

Tests used:
[1] = target: T1, Collagenase from Clostridium histolyticum (ChC); experiment: FALGPA hydrolysis, absorbance at […] nm; format: biochemical, Hathewaya histolytica; conditions: 2 mM FALGPA solution; 50 mM Tricine, 400 mM NaCl, 10 mM CaCl2, pH 7.5; 15 min preincubation
T1 construct: gene colG; docking used another collagenase (MMP)

[2] = target: T2, Porcine pancreatic elastase (Sus scrofa, UniProt P00772); experiment: chromogenic peptide hydrolysis, absorbance at […] nm; format: biochemical; conditions: 0.8 mM N-succinyl-Ala-Ala-Ala-p-nitroanilide; 15 min preincubation
T2 construct: gene CELA1; native pancreatic enzyme preparation; docking used another elastase (Zn metalloprotease, MMP12)
T2 sequence (P00772 27-266): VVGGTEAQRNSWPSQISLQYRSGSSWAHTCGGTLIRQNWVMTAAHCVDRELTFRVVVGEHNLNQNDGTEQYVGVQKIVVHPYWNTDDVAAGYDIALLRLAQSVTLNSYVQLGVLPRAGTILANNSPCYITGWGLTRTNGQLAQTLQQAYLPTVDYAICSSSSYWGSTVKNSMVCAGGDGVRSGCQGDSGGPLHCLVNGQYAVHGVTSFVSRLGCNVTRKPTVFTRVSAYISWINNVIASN

| Structure (SMILES) | Parameter / Collagenase [1] [µg/mL] | Parameter / Elastase [2] [µg/mL] |
| --- | --- | --- |
| O=c1c(O)c(-c2ccc(O)c(O)c2)oc2cc(O)cc(O)c12 [Quercetin] | 24.83 ± 1.8 | – |
| O=c1cc(CO)occ1O [Kojic acid] | – | 21.60 ± 0.9 |
